The record followed here is the Bradley open melting point set (2014).

SMILES strings stand for the structures. Several values for one entry are separate records, joined by “and”; a condition that tells them apart may be missing. Equal values may be shown once.

`CCCCCCCCc1ccccc1` [N-octylbenzene] returned a melting point of -36 °C.

In the case of `C(=Cc1ccccc1)c1ccccc1` [stilbene], the melting point was determined as 126 °C.

As for `O=C(O)Cc1ccccc1` [phenylacetic_acid], the melting point stood at 79 °C.

`CNC(=O)Oc1ccccc1OC(C)C` [propoxur] had a melting point of 91.5 °C.

Compound `COc1cc(Cc2cnc(N)nc2N)cc(OC)c1OC` [trimethoprim] had a melting point of 201 °C.

`OCc1ccccc1CO` [1,2-benzenedimethanol] yielded a melting point of 64 °C.

The compound `COC(=O)c1c(C)nn(C(=O)OC)c1C` [dimethyl 3,5-dimethyl-1H-pyrazole-1,4-dicarboxylate] gave a melting point of 90 °C.

`NS(=O)(=O)c1ccc(F)c2nonc12` [7-fluorobenzofurazan-4-sulfonamide]: the melting point was determined as 144 °C.

`CC(=O)N(C)c1ccc(Cl)cc1Cl` [2',4'-dichloro-n-methylacetanilide]: the melting point is 87 °C.

The compound `Cc1nc(N)ccc1Br` [6-amino-3-bromo-2-methylpyridine] showed a melting point of 81 °C.

In turn, `CCCCCCCCCCCCC(=O)O` [N-Tridecanoic Acid] came in with a melting point of 44.5 °C.

`C=C(C)C(=O)OC` [Methyl methacrylate]: the melting point was -48 °C.

As for `O=[N+]([O-])/C=C/c1ccc([N+](=O)[O-])cc1` [beta,4-dinitrostyrene], the melting point is 204 °C.

In the case of `ClC(Cl)=C(c1ccc(Cl)cc1)c1ccc(Cl)cc1` [4,4'-DDE], the melting point worked out at 89 °C.

The compound `OCc1ccc(-c2ccccc2)cc1` [p-phenylbenzyl alcohol] registered a melting point of 105 °C.

Consider `COc1ccc([C@@H]2CC(=O)c3c(O)cc(O)cc3O2)cc1O` [3',5,7-trihydroxy-4'-methoxyflavanone], for which the melting point was determined as 230 °C.

`Oc1ccccc1` [phenol]: the melting point is 41 °C (3×) and 42 °C.

The compound `NC1CCc2ccccc21` (stereo unspecified) [1-aminoindane] displayed a melting point of 2 °C.

Regarding `CC(=O)c1ccc(Cl)cc1` [4'-chloroacetophenone], the melting point amounted to 19 °C.

On to `O=Cc1ccc(O)c(Cl)c1` [3-chloro-4-hydroxybenzaldehyde], for which the melting point stood at 130 °C.

For the compound `CC(C)c1ncc([N+](=O)[O-])n1C` [Ipronidazole], the melting point amounted to 61 °C.

The compound `NCC(=O)O` [glycine] showed a melting point of 262 °C.

For the compound `CCOCCO` [2-ethoxyethanol], the melting point is -90 °C.

Compound `O=S(=O)(NS(=O)(=O)C(F)(F)F)C(F)(F)F` registered a melting point of 51.5 °C.

`Oc1cccc(Cl)c1Cl` [2,3-dichlorophenol] yielded a melting point of 59 °C.

Compound `Cc1cc([N+](=O)[O-])cc[n+]1[O-]` [4-nitro-2-picoline n-oxide] yielded a melting point of 156 °C.

The compound `O=C1C=C(NCNc2ccccn2)C(=O)c2ccccc21` [2-{[(pyridin-2-ylamino)methyl]amino}naphthalene-1,4-dione] had a melting point of 135 °C.

Consider `COc1cc(C(C)=O)ccc1F` [4'-fluoro-3'-methoxyacetophenone], for which the melting point amounted to 52 °C.

Regarding `CC(C)C1C(=O)NC(=O)NC1=O` [5-isopropylbarbituric acid], the melting point came out at 215 °C.

`C=CCOc1ccc(CC(=O)O)cc1Cl` [Epinal] returned a melting point of 92 °C.

For `CC(C)(C)O` [tert-butyl alcohol, anhydrous], the melting point was 25 °C.

Compound `Cc1ccc(N)c(N)c1` [4-Methylbenzene-1,2-diamine] gave a melting point of 89.5 °C.

Compound `CCCCCCCOc1ccc(C(=O)O)cc1` [4-n-heptyloxybenzoic acid] registered a melting point of 93 °C.

Consider `Cc1cc(C)cc(C=O)c1` [3,5-dimethylbenzaldehyde], for which the melting point is 9 °C.

With `c1ccc(C2CCCCC2)cc1` [Cyclohexylbenzene], the melting point is 5 °C.

The compound `COc1ccc(C)cc1OC` [3,4-dimethoxytoluene] gave a melting point of 27 °C.

`O=C(O)C(CBr)CBr` [3-bromo-2-(bromomethyl)propionic acid] gave a melting point of 100 °C.

Take `c1ccc2c(c1)Cc1ccccc1C2` [9,10-Dihydroanthracene]: the melting point worked out at 109 °C.

For the compound `Oc1cccc(Cl)c1` [m-chlorophenol], the melting point came to 34 °C.

`Cc1cc[n+]([O-])cc1C(=O)NN` [4-methylpyridine-3-carbohydrazide 1-oxide]: the melting point was determined as 226 °C.

Regarding `CCC(C)I` (stereo unspecified) [2-iodobutane], the melting point was -104 °C.

Take `OCc1ccccc1Cl` [2-chlorobenzyl alcohol]: the melting point stood at 70 °C.

`Nc1cc(Br)cnc1N` [5-bromo-2,3-diaminopyridine]: the melting point was determined as 157 °C.

Compound `CCCOC(=O)c1ccc(O)cc1` [propylparaben] returned a melting point of 96.5 °C.

As to `OCCN1CCN(CCCN2c3ccccc3Sc3ccc(Cl)cc32)CC1` [perphenazine], the melting point was 94 °C.

For `O=S(Br)Br` [thionyl bromide], the melting point is -52 °C.

`O=C=Nc1cccc([N+](=O)[O-])c1` [3-nitrophenyl isocyanate] came in with a melting point of 52 °C.

Compound `Cc1ccc2sc(C)nc2c1` [2,5-dimethylbenzothiazole] displayed a melting point of 40 °C.

Turning to `Brc1ccccc1` [bromobenzene], the melting point is -31 °C.

In turn, `CC12CCC(/C(=C/N(Cl)c3ccccc3)C1=O)C2(C)C` (stereo unspecified) gave a melting point of 103 °C.

In the case of `Oc1ccc2[nH]ccc2c1` [5-hydroxyindole], the melting point was determined as 109 °C.

Consider `C=CCCC` [Pent-1-ene], for which the melting point was -165 °C.

For `c1ccc(CCc2ccc(CCc3ccccc3)cc2)cc1` [1,4-bis(2-phenylethyl)benzene], the melting point was found to be 89 °C.

Regarding `CC1(C)C(=O)[C@]2(C)CC[C@H]1C2` [fenchone], the melting point amounted to 4 °C.

Turning to `O=C(c1ccc(Br)cc1)c1ccc(Br)cc1` [p,p'-dibromobenzophenone], the melting point was 175 °C.

Take `CN(C)CCO` [2-(dimethylamino)ethanol]: the melting point was -60 °C.

`O=C(O)/C=C/c1ccccc1[N+](=O)[O-]` [trans-2-nitrocinnamic acid] came in with a melting point of 247 °C.

For `ClC1=C(Cl)[C@]2(Cl)C3C(Cl)C=CC3[C@@]1(Cl)C2(Cl)Cl` (stereo partly specified), the melting point came out at 95.5 °C.

Regarding `CN(C)CCO` [2-(Dimethylamino)ethanol], the melting point was -70 °C.

In turn, `CCc1cnc(C(=O)O)c(C(=O)O)c1` [5-ethylpyridine-2,3-dicarboxylic acid] registered a melting point of 153 °C.

As to `CCOC(=O)c1ccccc1O` [ethyl salicylate], the melting point turned out to be 1 °C.

In the case of `[2H]C([2H])([2H])S(=O)C([2H])([2H])[2H]` [Bis[(~2~H_3_)methyl] sulfoxide], the melting point came to 18.4 °C.

Take `C=C(C)C(=O)OC` [methyl methacrylate]: the melting point was -48 °C.

`CCCCCCCCCCOc1cc(N(NC(=O)OC(C)(C)C)C(=O)OC(C)(C)C)cc(OCCCCCCCCCC)c1OCCCCCCCCCC` came in with a melting point of 56 °C.

As for `O=C(O)Cc1ccccc1` [phenylacetic acid], the melting point was 77.5 °C and 76.7 °C and 77 °C.

For the compound `O=C1OCCOC(=O)C2CCCCC2C(=O)OCCOC(=O)C2CCCCC12` (stereo unspecified), the melting point was 140 °C.
